From PubChem BioAssay (NCI)
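Method: 48-hour compound exposure of cells in 96-well plates, five concentrations, linear interpolation of endpoints. GI50: concentration for 50% inhibition of growth. TGI: total growth inhibition.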

Legend:
Assay in all cases: inhibition of tumour cell growth, NCI panel, 48 h
786-0 renal = test system: 786-0 renal
A498 renal = test system: A498 renal
A549 NSCLC = test system: A549 NSCLC
ACHN renal = test system: ACHN renal
BT-549 breast = test system: BT-549 breast
CAKI-1 renal = test system: CAKI-1 renal
CCRF-CEM leukemia = test system: CCRF-CEM leukemia
COLO 205 colon = test system: COLO 205 colon
DU-145 prostate = test system: DU-145 prostate
EKVX NSCLC = test system: EKVX NSCLC
HCC-2998 colon = test system: HCC-2998 colon
HCT-116 colon = test system: HCT-116 colon
HCT-15 colon = test system: HCT-15 colon
HL-60(TB) leukemia = test system: HL-60(TB) leukemia
HOP-62 NSCLC = test system: HOP-62 NSCLC
HOP-92 NSCLC = test system: HOP-92 NSCLC
HS 578T breast = test system: HS 578T breast
HT29 colon = test system: HT29 colon
IGROV1 ovarian = test system: IGROV1 ovarian
KM12 colon = test system: KM12 colon
LOX IMVI melanoma = test system: LOX IMVI melanoma
MALME-3M melanoma = test system: MALME-3M melanoma
MCF7 breast = test system: MCF7 breast
MDA-MB-231 breast = test system: MDA-MB-231 breast
MDA-MB-435 = test system: MDA-MB-435
MOLT-4 leukemia = test system: MOLT-4 leukemia
NCI-H226 lung = test system: NCI-H226 lung
NCI-H23 lung = test system: NCI-H23 lung
NCI-H460 lung = test system: NCI-H460 lung
NCI-H522 lung = test system: NCI-H522 lung
NCI/ADR-RES ovarian = test system: NCI/ADR-RES ovarian
OVCAR-3 ovarian = test system: OVCAR-3 ovarian
OVCAR-4 ovarian = test system: OVCAR-4 ovarian
OVCAR-5 ovarian = test system: OVCAR-5 ovarian
OVCAR-8 ovarian = test system: OVCAR-8 ovarian
PC-3 prostate = test system: PC-3 prostate
RPMI-8226 leukemia = test system: RPMI-8226 leukemia
RXF 393 renal = test system: RXF 393 renal
SF-268 CNS = test system: SF-268 CNS
SF-295 CNS = test system: SF-295 CNS
SF-539 CNS = test system: SF-539 CNS
SK-MEL-2 melanoma = test system: SK-MEL-2 melanoma
SK-MEL-28 melanoma = test system: SK-MEL-28 melanoma
SK-MEL-5 melanoma = test system: SK-MEL-5 melanoma
SK-OV-3 ovarian = test system: SK-OV-3 ovarian
SN12C renal = test system: SN12C renal
SNB-19 CNS = test system: SNB-19 CNS
SNB-75 CNS = test system: SNB-75 CNS
SR leukemia = test system: SR leukemia
SW-620 colon = test system: SW-620 colon
T-47D breast = test system: T-47D breast
TK-10 renal = test system: TK-10 renal
U251 CNS = test system: U251 CNS
UACC-257 melanoma = test system: UACC-257 melanoma
UACC-62 melanoma = test system: UACC-62 melanoma
UO-31 renal = test system: UO-31 renal

Compound C[C@H]1CN(C2COC2)CCN1c1ccc(Nc2cc(-c3ccnc(N4CCn5c(cc6c5CC(C)(C)C6)C4=O)c3CO)cn(C)c2=O)nc1 has a GI50 (786-0 renal) of 19.5 µM, a TGI (786-0 renal) greater than 100 µM and a GI50 (A498 renal) of 10.3 µM. The TGI (A498 renal) was 33.9 µM, the GI50 (A549 NSCLC) was 56.8 µM and the TGI (A549 NSCLC) was greater than 100 µM. The GI50 (ACHN renal) was 30.2 µM, the TGI (ACHN renal) was greater than 100 µM and the GI50 (BT-549 breast) was 17.7 µM. For the same compound, the TGI (BT-549 breast) was 55.1 µM, the GI50 (CAKI-1 renal) was 27.9 µM and the TGI (CAKI-1 renal) was greater than 100 µM. The GI50 (CCRF-CEM leukemia) was 21.4 µM, the TGI (CCRF-CEM leukemia) was greater than 100 µM and the GI50 (COLO 205 colon) was 27.1 µM. It also gave a TGI (COLO 205 colon) greater than 100 µM, a GI50 (DU-145 prostate) of 45.9 µM and a TGI (DU-145 prostate) greater than 100 µM. For the same compound, the GI50 (EKVX NSCLC) was greater than 100 µM, the TGI (EKVX NSCLC) was greater than 100 µM and the GI50 (HCC-2998 colon) was 49.9 µM. For the same compound, the TGI (HCC-2998 colon) was greater than 100 µM, the GI50 (HCT-116 colon) was 38.4 µM and the TGI (HCT-116 colon) was greater than 100 µM. For the same compound, the GI50 (HCT-15 colon) was 47 µM, the TGI (HCT-15 colon) was greater than 100 µM and the GI50 (HL-60(TB) leukemia) was 16.6 µM. For the same compound, the TGI (HL-60(TB) leukemia) was 47.2 µM, the GI50 (HOP-62 NSCLC) was 39.1 µM and the TGI (HOP-62 NSCLC) was greater than 100 µM. For the same compound, the GI50 (HOP-92 NSCLC) was 12.6 µM, the TGI (HOP-92 NSCLC) was 64.6 µM and the GI50 (HS 578T breast) was 27.7 µM. The TGI (HS 578T breast) was greater than 100 µM, the GI50 (HT29 colon) was 23.8 µM and the TGI (HT29 colon) was greater than 100 µM. For the same compound, the GI50 (IGROV1 ovarian) was 19.7 µM, the TGI (IGROV1 ovarian) was greater than 100 µM and the GI50 (KM12 colon) was 56.8 µM. For the same compound, the TGI (KM12 colon) was greater than 100 µM, the GI50 (LOX IMVI melanoma) was 29.8 µM and the TGI (LOX IMVI melanoma) was greater than 100 µM. It also gave a GI50 (MALME-3M melanoma) greater than 100 µM, a TGI (MALME-3M melanoma) greater than 100 µM and a GI50 (MCF7 breast) of 28.7 µM. It also gave a TGI (MCF7 breast) greater than 100 µM, a GI50 (MDA-MB-231 breast) of 26.1 µM and a TGI (MDA-MB-231 breast) greater than 100 µM. The GI50 (MDA-MB-435) was 26.4 µM, the TGI (MDA-MB-435) was greater than 100 µM and the GI50 (MOLT-4 leukemia) was 14.3 µM. It also gave a TGI (MOLT-4 leukemia) greater than 100 µM, a GI50 (NCI-H226 lung) of 19.6 µM and a TGI (NCI-H226 lung) of 46.5 µM. It also gave a GI50 (NCI-H23 lung) greater than 100 µM, a TGI (NCI-H23 lung) greater than 100 µM and a GI50 (NCI-H460 lung) of 61.1 µM. For the same compound, the TGI (NCI-H460 lung) was greater than 100 µM, the GI50 (NCI-H522 lung) was 56.3 µM and the TGI (NCI-H522 lung) was greater than 100 µM. The GI50 (NCI/ADR-RES ovarian) was 47.8 µM, the TGI (NCI/ADR-RES ovarian) was greater than 100 µM and the GI50 (OVCAR-3 ovarian) was 37.4 µM. It also gave a TGI (OVCAR-3 ovarian) greater than 100 µM, a GI50 (OVCAR-4 ovarian) of 22.4 µM and a TGI (OVCAR-4 ovarian) greater than 100 µM. For the same compound, the GI50 (OVCAR-5 ovarian) was 73 µM, the TGI (OVCAR-5 ovarian) was greater than 100 µM and the GI50 (OVCAR-8 ovarian) was 54.3 µM. For the same compound, the TGI (OVCAR-8 ovarian) was greater than 100 µM, the GI50 (PC-3 prostate) was 36.6 µM and the TGI (PC-3 prostate) was greater than 100 µM. The GI50 (RPMI-8226 leukemia) was 13.1 µM, the TGI (RPMI-8226 leukemia) was 60.7 µM and the GI50 (RXF 393 renal) was 40.6 µM. The TGI (RXF 393 renal) was greater than 100 µM, the GI50 (SF-268 CNS) was 29.5 µM and the TGI (SF-268 CNS) was greater than 100 µM. The GI50 (SF-295 CNS) was 68.6 µM, the TGI (SF-295 CNS) was greater than 100 µM and the GI50 (SF-539 CNS) was 21.4 µM. It also gave a TGI (SF-539 CNS) of 66.9 µM, a GI50 (SK-MEL-2 melanoma) of 74.2 µM and a TGI (SK-MEL-2 melanoma) greater than 100 µM. It also gave a GI50 (SK-MEL-28 melanoma) of 39.8 µM, a TGI (SK-MEL-28 melanoma) greater than 100 µM and a GI50 (SK-MEL-5 melanoma) of 31.2 µM. For the same compound, the TGI (SK-MEL-5 melanoma) was greater than 100 µM, the GI50 (SK-OV-3 ovarian) was greater than 100 µM and the TGI (SK-OV-3 ovarian) was greater than 100 µM. For the same compound, the GI50 (SN12C renal) was 49.9 µM, the TGI (SN12C renal) was greater than 100 µM and the GI50 (SNB-19 CNS) was 51.2 µM. The TGI (SNB-19 CNS) was greater than 100 µM, the GI50 (SNB-75 CNS) was 15.5 µM and the TGI (SNB-75 CNS) was greater than 100 µM. For the same compound, the GI50 (SR leukemia) was 23.1 µM, the TGI (SR leukemia) was greater than 100 µM and the GI50 (SW-620 colon) was 47.8 µM. It also gave a TGI (SW-620 colon) greater than 100 µM, a GI50 (T-47D breast) of 19.2 µM and a TGI (T-47D breast) greater than 100 µM. The GI50 (TK-10 renal) was 38.7 µM, the TGI (TK-10 renal) was greater than 100 µM and the GI50 (U251 CNS) was 44.8 µM. The TGI (U251 CNS) was greater than 100 µM, the GI50 (UACC-257 melanoma) was 27.6 µM and the TGI (UACC-257 melanoma) was 58.1 µM. The GI50 (UACC-62 melanoma) was 23.2 µM, the TGI (UACC-62 melanoma) was 82.3 µM and the GI50 (UO-31 renal) was 21.7 µM. The TGI (UO-31 renal) was greater than 100 µM.
